In US20030129629A1, “Methods and compositions for the identification, assessment, prevention, and therapy of human cancers” (Millennium Pharmaceuticals, Inc., priority 2000, published 2003):
Like-named read-outs stand apart in the source and are kept apart here.

How the values were obtained:
[1] = test system: 60 cancer cell lines (NCI 60 cancer cell line series); conditions: cited from earlier work
[2] = test system: 60 cancer cell lines (NCI 60 cancer cell line series); test: NCI-DTP in vitro cancer screen, sulforhodamine B (SRB) growth inhibition, 48 hour exposure; type: cell-based, human
In short: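 NCI-DTP panel of 60 cancer cell lines plated day 0 at line-specific densities, exposed from day 1 to compound at 5 ten-fold-spaced doses in duplicate wells. After 48 h, cell mass stained with sulforhodamine B; −log GI50 derived from dose–response curves, averaged, and classed Low, Medium or High sensitivity.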

COc1cccc2c1C(=O)c1c(O)c3c(c(O)c1C2=O)C[C@@](O)(C(C)=O)C[C@@H]3O[C@H]1C[C@H](N)[C@H](O)[C@H](C)O1 [Daunorubicin]
−Log (GI50) ([1]; Breast MCF7/ADRr CL5002): 5.3 | −Log (GI50) ([1]; Colon COLO-250 CL4010): 6.8 | −Log (GI50) ([1]; NSCLC NCI-H226 CL1013): 7.5 | −Log (GI50) ([1]; Renal UO-31 CL9004): 6.4 | classification of cell line as Low(1), Medium(2), High(3) sensitivity to compound ([2]; Breast BT-549 CL5013): 1 | classification of cell line as Low(1), Medium(2), High(3) sensitivity to compound ([2]; Breast MCF7(I) CL5001): 3 | classification of cell line as Low(1), Medium(2), High(3) sensitivity to compound ([2]; Breast MCF7/ADRr CL5002): 1 | classification of cell line as Low(1), Medium(2), High(3) sensitivity to compound ([2]; Breast MDA-MB-231 CL5005): 1 | classification of cell line as Low(1), Medium(2), High(3) sensitivity to compound ([2]; Breast MDA-MB-435 CL5011): 1 | classification of cell line as Low(1), Medium(2), High(3) sensitivity to compound ([2]; Breast MDA-N CL5012): 1 | classification of cell line as Low(1), Medium(2), High(3) sensitivity to compound ([2]; Breast T-47D CL5014): 2 | classification of cell line as Low(1), Medium(2), High(3) sensitivity to compound ([2]; CNS SF-268 CL12014): 2 | classification of cell line as Low(1), Medium(2), High(3) sensitivity to compound ([2]; CNS SF-295 CL12015): 2 | classification of cell line as Low(1), Medium(2), High(3) sensitivity to compound ([2]; CNS SNB-19 CL12002): 2 | classification of cell line as Low(1), Medium(2), High(3) sensitivity to compound ([2]; CNS SNB-75(I) CL12005): 2 | classification of cell line as Low(1), Medium(2), High(3) sensitivity to compound ([2]; CNS U251(I) CL12009): 2 | classification of cell line as Low(1), Medium(2), High(3) sensitivity to compound ([2]; Colon COLO-250 CL4010): 1 | classification of cell line as Low(1), Medium(2), High(3) sensitivity to compound ([2]; Colon HCC-2998 CL4002): 1 | classification of cell line as Low(1), Medium(2), High(3) sensitivity to compound ([2]; Colon HCT-15 CL4015): 1 | classification of cell line as Low(1), Medium(2), High(3) sensitivity to compound ([2]; Colon HCT-116 CL4003): 2 | classification of cell line as Low(1), Medium(2), High(3) sensitivity to compound ([2]; Colon HT29(I) CL4001): 2 | classification of cell line as Low(1), Medium(2), High(3) sensitivity to compound ([2]; Colon SW-620 CL4009): 2 | classification of cell line as Low(1), Medium(2), High(3) sensitivity to compound ([2]; Leukemia CCRF-CEM(I) CL7003): 3 | classification of cell line as Low(1), Medium(2), High(3) sensitivity to compound ([2]; Leukemia HL-60(I) CL7008): 3 | classification of cell line as Low(1), Medium(2), High(3) sensitivity to compound ([2]; Leukemia MOLT-4 CL7006): 3 | classification of cell line as Low(1), Medium(2), High(3) sensitivity to compound ([2]; Leukemia SR CL7019): 3 | classification of cell line as Low(1), Medium(2), High(3) sensitivity to compound ([2]; Melanoma M14 CL10014): 1 | classification of cell line as Low(1), Medium(2), High(3) sensitivity to compound ([2]; Melanoma MALME-3M CL10002): 2 | classification of cell line as Low(1), Medium(2), High(3) sensitivity to compound ([2]; Melanoma SK-MEL-5 CL10007): 2 | classification of cell line as Low(1), Medium(2), High(3) sensitivity to compound ([2]; Melanoma SK-MEL-28 CL10008): 1 | classification of cell line as Low(1), Medium(2), High(3) sensitivity to compound ([2]; Melanoma UACC-62 CL10020): 2 | classification of cell line as Low(1), Medium(2), High(3) sensitivity to compound ([2]; Melanoma UACC-257 CL10021): 1 | classification of cell line as Low(1), Medium(2), High(3) sensitivity to compound ([2]; NSCLC A549/ATCC CL1004): 2 | classification of cell line as Low(1), Medium(2), High(3) sensitivity to compound ([2]; NSCLC EKVX CL1008): 1 | classification of cell line as Low(1), Medium(2), High(3) sensitivity to compound ([2]; NSCLC HOP-62 CL1026): 2 | classification of cell line as Low(1), Medium(2), High(3) sensitivity to compound ([2]; NSCLC HOP-92 CL1029): 2 | sensitivity classification Low(1)/Medium(2)/High(3) ([2]; NSCLC NCI-H23(I) CL1001): 2 | classification of cell line as Low(1), Medium(2), High(3) sensitivity to compound ([2]; NSCLC NCI-H226 CL1013): 2 | sensitivity classification Low(1)/Medium(2)/High(3) ([2]; NSCLC NCI-H332M CL1017): 1 | sensitivity classification Low(1)/Medium(2)/High(3) ([2]; NSCLC NCI-H460 CL1021): 3 | sensitivity classification Low(1)/Medium(2)/High(3) ([2]; NSCLC NCI-H522 CL1003): 2 | sensitivity classification Low(1)/Medium(2)/High(3) ([2]; Ovarian IGROV1 CL6010): 2 | sensitivity classification Low(1)/Medium(2)/High(3) ([2]; Ovarian OVCAR-3 CL6001): 1 | sensitivity classification Low(1)/Medium(2)/High(3) ([2]; Ovarian OVCAR-4 CL6002): 1 | sensitivity classification Low(1)/Medium(2)/High(3) ([2]; Ovarian OVCAR-5 CL6003): 1 | sensitivity classification Low(1)/Medium(2)/High(3) ([2]; Ovarian OVCAR-8 CL6005): 2 | sensitivity classification Low(1)/Medium(2)/High(3) ([2]; Prostate DU-145 CL11003): 2 | sensitivity classification Low(1)/Medium(2)/High(3) ([2]; Prostate PC-3(I) CL11001): 2 | sensitivity classification Low(1)/Medium(2)/High(3) ([2]; Renal 786-0 CL9018): 2 | sensitivity classification Low(1)/Medium(2)/High(3) ([2]; Renal A498 CL9013): 1 | sensitivity classification Low(1)/Medium(2)/High(3) ([2]; Renal ACHN CL9023): 2 | sensitivity classification Low(1)/Medium(2)/High(3) ([2]; Renal CAKI-1 CL9015): 2 | sensitivity classification Low(1)/Medium(2)/High(3) ([2]; Renal RXF-393 CL9016): 1 | sensitivity classification Low(1)/Medium(2)/High(3) ([2]; Renal SN12C CL9008): 2 | sensitivity classification Low(1)/Medium(2)/High(3) ([2]; Renal TK10 CL9024): 1 | sensitivity classification Low(1)/Medium(2)/High(3) ([2]; Renal UO-31 CL9004): 1
